Assay results reported in patent US11992011B2, “Compounds for controlling plant pathogens” (VIB VZW, priority 2017, dated 2024).

Legend:
Meloidogyne graminicola [1] = test: M. graminicola infection in wild type and OsWRKY45 knockdown rice (Example 16); assay type: in vivo; conditions: for Likelihood of necrosis / Fraction of empty galls / Fraction of small galls / Gall number / Galls per AR: MDCA/PA spray; for Fraction of empty galls / Fraction of small galls / Gall number / Galls per AR: median (interquartile range); for change of number of galls per root system, WRKY45 treated vs WRKY45 control: WRKY45-RNAi rice; for change of number of galls per root system, WT treated vs WT+CON: wild type rice
Protocol: (§1) Infection experiments with M. graminicola were performed by inoculating host plants 14 days after transfer to SAP by introducing the desired amount of J2 juveniles next to the root system using a micro pipette. Rice plants (cv. Nipponbare or Kitaake) were inoculated with 250 J2 juveniles per plant; wheat plants (cv. Sahara) were inoculated with 600 J2 juveniles per plant. Plants were harvested 14 days after inoculation. At this point, the plants were phenotyped by measuring the shoot and root length with a ruler, counting the number of adventitious roots and in some experiments by measuring leaf area using the EasyLeafArea software (Easlon and Bloom, 2014) and by determining shoot dry mass after 72 hours of drying in an oven at 70° C. Root systems were then stained in acid fuchsine as described in (Byrd et al., 1983) and left to destain in glycerol with 1 ml/l fuming HCl added for approximately ten days. The number of galls and nematodes was then counted using a binocular microscope.
To test the potential involvement of salicylic acid (SA) in MDCA/PA defense enhancement the response of MDCA/PA-treated RNAi-knockdown mutants in OsWRKY45 to nematode infection was examined. The OsWRKY proteins form a family of rice transcription factors that regulate a broad range of cellular processes, most of which are related to abiotic and biotic stress response (Jimmy and Babu, 2015). In keeping with their important role in defense, many OsWRKY genes are controlled by the plant defense hormones jasmonic acid and SA (Ryu et al., 2006; Jimmy and Babu, 2015).
OsWRKY45 is a master regulator of SA-induced defense responses. Knockdown lines in this gene are useful for testing whether MDCA/PA defense enhancement depends on SA signaling, as OsWRKY45 (unlike most other defense genes) is believed to be triggered only by SA (Ryu et al. 2006; incorporated by reference).
Galls were counted and classified by their size and by whether they were empty or not. The presence or absence of necrosis in the root system was also recorded.

OsPAL4 = test: qRT-PCR in rice roots, OsPAL4 (Example 19); assay type: in vivo, Oryza sativa; conditions: rice cv. Bomba root tissue; 100 μM; harvested 13 days after germination; N=3 pools
Protocol: (§2) After quality control, qPCR was carried out.

OsICS1 = test: qRT-PCR in rice roots, OsICS1 (Example 19); assay type: in vivo, Oryza sativa; conditions: rice cv. Bomba root tissue; 100 μM; harvested 13 days after germination; N=3 pools
Protocol: as §2

OsWRKY45 = test: qRT-PCR in rice roots, OsWRKY45 (Example 19); assay type: in vivo, Oryza sativa; conditions: rice cv. Bomba root tissue; 100 μM; harvested 13 days after germination; N=3 pools
Protocol: as §2

tomato = test: Phytotoxicity of foliar spray in uninfected tomato (Example 1); assay type: in vivo, Solanum lycopersicum; conditions: 500 μM foliar spray, 8 plants per treatment
Protocol: Tomato seeds, cv. Moneymaker (Vreeken's Zaden, Dordrecht, the Netherlands) were sown on autoclaved potting soil coveed with polyethylene film and placed at 24° C. for eight days. Seedlings were then transferred to individual SAP-filled pots and placed in a growth chamber at 24° C. Plants were watered three times per week with 25 ml of quarter-strength Hoagland solution for the first two weeks and half-strength thereafter.
Unless otherwise mentioned, all chemicals for nematode experiments were applied as a foliar spray consisting of the target compound at a concentration of 300 μM together with 0.1% (v/v) Tween 20 surfactant (Calbiochem) in distilled water. Again unless otherwise mentioned, all treatments for the nematode experiments were carried out three times: one and eight days before pathogen inoculation and seven days after pathogen inoculation. In all cases, plants were sprayed until run-off with an atomizer.
Short-term phytotoxicity experiments (Example 1) were analyzed using non-parametric methods. For each variable, overall significance was determined using the Kruskal-Wallis test (Kruskal and Wallis, 1952), followed by a posthoc Conover-Iman test (Conover and Iman, 1981) with Hommel multiplicity correction (Hommel, 1988) if the Kruskal-Wallis test was significant. When only two groups were present, the Wilcoxon-Mann-Whitney test was used (Mann and Whitney, 1947).
To test whether C4H inhibitors induce phytotoxic effects in crops, uninfected tomato, wheat and carrot were treated with piperonylic acid (PA), 4-iodobenzoic acid (4-IBA) and piperic acid (PIA) at a concentration of 500 μM through foliar application. At harvest, leaf area (or shoot length in the case of wheat) and primary root length were recorded. The BBCH developmental stage (Lancashire et al., 1991), a measure of developmental retardation, was used to test for effects on development. Finally, the presence of visible signs of phytotoxicity such as chlorosis, discoloration or necrosis was recorded.

Meloidogyne graminicola [2] = test: Application regimens of PA, rice - Meloidogyne graminicola (Example 8); assay type: in vivo
Protocol: Seed coatings were applied by dipping seeds in a coating solution containing 20 g/I high viscosity carboxymethylcellulose (Sigma-Aldrich, Saint Louis, USA) in distilled water as well as 300 μM of the target compound. Seeds were then dried overnight at room temperature.
as §1
Four application regimes for PA on the rice-Meloidogyne graminicola interaction were compared: a seed coating treatment, a single high-dose foliar spray prior to infection, a single high-dose foliar spray after infection and repeated lower-dose foliar sprays throughout the growing period.
One hundred rice seeds (cv. Nipponbare) were randomly divided into five groups of twenty seeds: a control group, seeds that were coated with carboxymethylcellulose containing 300 μM PA (PA coating), a group that would be foliarly sprayed with 100 μM PA solution three times per week (PA continuous), a group that would be sprayed once with a 300 μM PA solution one day prior to nematode inoculation (PA−1 dpi) and a group that would be sprayed once with a 300 μM PA solution seven days after nematode inoculation (PA+7 dpi).
The experiment was carried out as per the materials and methods described in Materials and Methods, sections Oryza sativa (rice) and Meloidogyne graminicola culture.

[3] = PA +7 dpi: sprayed once with 300 μM PA seven days after inoculation, n = 8
[4] = PA coating: seeds coated with carboxymethylcellulose solution containing 300 μM PA, n = 7
[5] = PA continuous: sprayed three times a week with 100 μM PA, n = 9
[6] = PA −1 dpi: sprayed once with 300 μM PA one day before inoculation, n = 8

Row | Compound | Likelihood of necrosis (Meloidogyne graminicola [1]; WRKY45-RNAi knockdown rice) | Fraction of empty galls (Meloidogyne graminicola [1]; WRKY45-RNAi knockdown rice) | Fraction of small galls (Meloidogyne graminicola [1]; WRKY45-RNAi knockdown rice) | Gall number (Meloidogyne graminicola [1]; WRKY45-RNAi knockdown rice) | Galls per AR (Meloidogyne graminicola [1]; WRKY45-RNAi knockdown rice) | change of number of galls per root system, WRKY45 treated vs WRKY45 control (Meloidogyne graminicola [1]) [%] | Likelihood of necrosis (Meloidogyne graminicola [1]; Wild type rice) | Fraction of empty galls (Meloidogyne graminicola [1]; Wild type rice) | Fraction of small galls (Meloidogyne graminicola [1]; Wild type rice) | Gall number (Meloidogyne graminicola [1]; Wild type rice) | Galls per AR (Meloidogyne graminicola [1]; Wild type rice) | change of number of galls per root system, WT treated vs WT+CON (Meloidogyne graminicola [1]) [%] | Fold change vs. control, OsPAL4 expression (OsPAL4) | Fold change vs. control, OsICS1 expression (OsICS1) | Fold change vs. control, OsWRKY45 expression (OsWRKY45) | further results
1 | O=C(O)/C=C/c1ccc2c(c1)OCO2 [MDCA, 3,4-methylenedioxycinnamic acid] | 0.50 ± 0.53 | 0.09 (0.01) | 0.94 (0.03) | 52.0 (10.8) | 3.3 (0.7) | −23 | 0.63 ± 0.52 | 0.02 (0.04) | 0.86 (0.07) | 36.5 (10.3) | 2.3 (0.6) | −42 | 2.38 | 1.73 | 1.67 | –
2 | O=C(O)c1ccc2c(c1)OCO2 [PA, Piperonylic acid] | 0.60 ± 0.52 | 0.02 (0.03) | 0.91 (0.05) | 39.0 (20.3) | 2.2 (0.8) | −41 | 0.78 ± 0.44 | 0.03 (0.03) | 0.93 (0.06) | 33.0 (10.0) | 1.8 (0.5) | −42 | 3.04 | 1.36 | 1.30 | Leaf Area (tomato; mean ± standard deviation): 11.83 ± 1.70 cm^2; Root length (tomato; mean ± standard deviation): 7.95 ± 1.83 cm; BBCH stage (tomato; median ± interquartile range): 102 ± 1.0; Fraction of small galls (Meloidogyne graminicola [2]; [3]): 0.91 ± 0.11; Number of galls (Meloidogyne graminicola [2]; [3]): 18.1 ± 13.6; Number of galls per AR (Meloidogyne graminicola [2]; [3]): 1.1 ± 0.6; Fraction of small galls (Meloidogyne graminicola [2]; [4]): 0.96 ± 0.04; Number of galls (Meloidogyne graminicola [2]; [4]): 19.0 ± 11.0; Number of galls per AR (Meloidogyne graminicola [2]; [4]): 1.3 ± 0.8; Fraction of small galls (Meloidogyne graminicola [2]; [5]): 0.95 ± 0.08; Number of galls (Meloidogyne graminicola [2]; [5]): 18.1 ± 13.1; Number of galls per AR (Meloidogyne graminicola [2]; [5]): 1.2 ± 0.7; mortality of seedlings from seeds coated with PA (Meloidogyne graminicola [2]; PA seed coating, two out of ten in the control group, not statistically significant): four of ten; Fraction of small galls (Meloidogyne graminicola [2]; [6]): 0.91 ± 0.06; Number of galls (Meloidogyne graminicola [2]; [6]): 25.3 ± 9.4; Number of galls per AR (Meloidogyne graminicola [2]; [6]): 1.4 ± 0.5
